Data on one molecule can be found in patent US20190292577A1, “COMPOSITIONS AND METHOD FOR THE TREATMENT OF ACNE” (ProdermIQ, Inc., priority 2018, published 2019).

One experiment relates to P. acnes. Briefly: Skin microbiome profiling, benzoyl peroxide versus no benzoyl peroxide. The class given is in vivo, Propionibacterium acnes. The conditions noted are these: benzoyl peroxide applied versus no benzoyl peroxide, FIG. 3. The source says:
(§1) Described herein are findings of a study of individuals comprising preadolescent females with acne, and changes in the microbiomes of the individuals with the use of benzoyl peroxide wash. Flora was taken from different areas of the faces of the individuals and studied for sensitivity to benzoyl peroxide. Inclusion criteria of the study for which results are provided herein include: • 1. Minimum of 6 acne lesions present. • 2. No prior use of prescription acne product. • 3. No prior use of over-the-counter benzoyl peroxide anti-acne agent. • 4. Ages: 7-12 • 5. Sex: Female Exclusion criteria of the study for which results are provided herein include: • 1. Significant active skin conditions on the face other than acne vulgaris (may include atopic dermatitis, psoriasis, or others). • 2. Use of oral or parenteral antibiotics within 3 months prior to the study. Sites from which samples were taken along with abbreviations for each include: • RA or RAL: Retroauricular Behind Ear • CH or CHN: Chin • CK or CKN: Cheek • FH or FHN: Forehead • AN or ANN: Ala Nasal [Outside of Nose] • CO or CON: Comedone In some embodiments, the skin microbiome of an individual subject is evaluated. Individual microbiomes vary greatly across subjects and regions of the skin. […] Samples were taken from locations on the heads of the individuals including behind the ear, chin, cheek, forehead, and outside the nose. […]

A further experiment has as its system S. mitis. The description is as above. The class given is in vivo. The note with it: benzoyl peroxide applied versus no benzoyl peroxide, FIG. 3.
Description: as §1

Another experiment deals with skin microbiome. Briefly: Site specific and overall effect of benzoyl peroxide on the skin microbiome. The class given is in vivo, human.
Description: as §1

Another experiment has as its system C2 P. acnes strain. Briefly: P. acnes strain profiling before and after benzoyl peroxide treatment. Type of experiment: in vivo, Propionibacterium acnes. The note with it: after benzoyl peroxide treatment, FIG. 39. The method, then:
A group of subjects with P. acnes populations were treated with benzoyl peroxide and divided into 3 cohorts based on the effectiveness of the treatment. Subjects in the “Decrease Cohort” experienced a decrease in P. acnes populations, subjects in the “Increase Cohort” experienced an increase in P. acnes populations, and the “Flat Cohort” experienced non-measureable variance in P. acnes populations. […] Shown is the mean proportion of P. acnes across “Increase”, “Decrease”, and “Flat” cohort. […] The Al P. acnes across is differentiated between “Increase” and “Decrease” cohort. […] The K4 & C3 P. acnes is differentiated between “Increase” and “Decrease” cohort. […] The F4 & D1 P. acnes is differentiated between “Increase” and “Decrease” cohort. […] […] The K4 and A2 P. acnes strains are more prevalent in “Decrease” cohort while the K1 strain is more prevalent in “Increase” cohort.

For `O=C(OOC(=O)c1ccccc1)c1ccccc1` [benzoyl peroxide], the “P. acnes levels within the microbiome” value in the experiment with P. acnes is given as “decreased”. The “S. mitis relative proportion in the microbiome” value with S. mitis is reported as “increased”. For the same molecule, in the experiment on skin microbiome (among all sites tested, from the site specific prediction models of Table 2), the “Skin site impacted the most by benzoyl peroxide” value is “cheek gets impacted the most”. In addition, the “Impact on overall microbiome diversity” value in the experiment with skin microbiome (benzoyl peroxide treatment) is listed as “does not impact the overall microbiome diversity”. The “Prevalence of the C2 P. acnes strain after treatment” value in the experiment with C2 P. acnes strain is given as “becomes more prevalent”.
